In this experiment the target is T1, recombinant human LTA4 hydrolase (rhLTA4H) (Homo sapiens, UniProt P09960).
T1 construct: made in house; host or cells: Spodoptera frugiperda (Sf-9) cells, baculovirus (pFastBac1)
T1 sequence (P09960 1-611): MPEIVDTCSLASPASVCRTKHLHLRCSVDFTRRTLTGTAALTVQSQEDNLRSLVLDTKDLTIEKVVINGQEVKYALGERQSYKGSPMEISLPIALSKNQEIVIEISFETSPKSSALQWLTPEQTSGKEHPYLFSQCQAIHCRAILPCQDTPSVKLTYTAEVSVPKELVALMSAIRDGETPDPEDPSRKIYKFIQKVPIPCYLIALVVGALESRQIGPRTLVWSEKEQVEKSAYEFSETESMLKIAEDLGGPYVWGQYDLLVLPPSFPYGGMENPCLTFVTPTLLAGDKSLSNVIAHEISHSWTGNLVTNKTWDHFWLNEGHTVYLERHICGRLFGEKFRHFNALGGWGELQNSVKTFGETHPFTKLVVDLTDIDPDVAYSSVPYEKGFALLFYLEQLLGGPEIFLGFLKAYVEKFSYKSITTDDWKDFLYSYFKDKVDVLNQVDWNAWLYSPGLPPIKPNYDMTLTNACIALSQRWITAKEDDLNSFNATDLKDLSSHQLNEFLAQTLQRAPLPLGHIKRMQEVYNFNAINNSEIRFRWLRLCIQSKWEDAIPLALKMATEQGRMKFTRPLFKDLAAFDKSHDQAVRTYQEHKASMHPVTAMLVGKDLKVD
Put plainly: Recombinant human LTA4 hydrolase assay for LTA4 hydrolase inhibitor activity. It is filed as biochemical. Here is the method:
Recombinant Human LTA4 Hydrolase Assay for LTA4 Hydrolase Inhibitor Activity
Compounds of the present invention were tested for LTA4 hydrolase inhibitor activity against recombinant human LTA4 hydrolase (rhLTA4H). Vectors were prepared and used to express rhLTA4H essentially as follows: LTA4 hydrolase encoding DNA was amplified by polymerase chain reaction (PCR) using a human placental cDNA library as a template. Oligonucleotide primers for the PCR reaction were based on the 5′-end, and the complement of the 3′-end, of the published nucleotide sequence for the coding region of the human LTA4 hydrolase gene (C. D. Funk et al., Proc. Natl. Acad. Sci. USA 1987, 84:6677-6681). The amplified […] DNA fragment encoding LTA4 hydrolase was isolated and cloned into the pFastBac1 vector (Invitrogen). Recombinant baculovirus was generated as described by the manufacturer, and used to infect Spodoptera frugiperda (Sf-9) cells. Recombinant LTA4 hydrolase enzyme was purified from the infected Sf-9 cells essentially as described by J. K. Gierse et al. (Protein Expr. Purif. 1993, 4(5):358-366). The purified enzyme solution was adjusted to contain 0.29 mg/mL LTA4 hydrolase, 50 mM Tris (pH 8.0),150 mM NaCl, 5 mM dithiothreitol, 50% glycerol, and EDTA-free Complete protease inhibitor cocktail (Roche). The specific activity of the enzyme was about 3.8 μmol/min/mg.
LTA4 substrate was prepared from the methyl ester of LTA4 (Cayman Chemical) by treatment with 67 equiv. of NaOH under nitrogen at rt for 40 min. The LTA4 substrate in its free acid form was kept frozen at −80° C. until needed. Each compound was diluted to different concentrations in assay buffer (0.1 M potassium phosphate (pH 7.4), 5 mg/mL fatty acid free BSA) containing 10% DMSO. A 25-μL aliquot of each compound dilution was incubated for 10 min at rt with an equal volume of assay buffer containing 36 ng of recombinant human LTA4H. The solution was then adjusted to 200 μL with assay buffer. LTA4 (free acid) was thawed and diluted in assay buffer to a concentration of 357 ng/mL, and 25 μL (9 ng) of LTA4 substrate was added to the reaction mixture (total volume=225 μL) at time zero. Each reaction was carried out at rt for 10 min. The reaction was stopped by diluting 10 μL of the reaction mixture with 200 μL of assay buffer. LTB4 was quantifiedin the diluted sample by a commercially available enzyme-linked immunoassay (Cayman Chemical Co.), as recommended by the manufacturer. Positive controls, under essentially identical conditions but without addition of an inhibitor compound, and negative controls, containing all assay components except enzyme, were routinely run in each experiment. IC50 values were determined by fitting the activity data at different compound concentrations to a 4-parameter equation using the Grafit program (Erithacus software).
The IC50 values presented in the table below should be expected to fall within the typical three-fold variability of assays of this type. The values presented here are, in general, an average of one to three determinations.

Where [1] appears, read: recombinant human LTA4H, LTB4 quantified by enzyme-linked immunoassay, average of one to three determinations, read-out: IC50.

Structures can show the parent of a compound that is named as a salt. Where two headings read alike, the source gives them in different places.

The IC50 is the concentration that inhibits the measured activity by half. As to `NC(=O)C1CCCN(Cc2ccc(OCCCc3ccccc3)cc2)C1` (stereo not shown) [Example 111, 1-[4-(3-Phenyl-propoxy)-benzyl]-piperidine-3-carboxylic acid amide], under setting [1], the IC50 was determined as 95 nM.
Consider `O=C(Cc1ccc(OCCN2CCCCC2)cc1)Nc1ccccc1O` [Example 44, N-(2—hydroxy-phenyl)-2-[4-(2-piperidin-1-yl-ethoxy)-phenyl]-acetamide], for which, under setting [1], the IC50 stood at 64 nM.
The same measure, in the same setting: as for `O=C(Nc1ccccc1)Oc1ccc(CCCN2CCCCC2)cc1` [Example 37, Phenyl-carbamic acid 4-(3-piperidin-1-yl-propyl)-phenyl ester], the figure is 15 nM; as for `CCCN(CCOc1ccc(OC(=O)Nc2ccccc2)cc1)CC1CC1` [Example 49, Phenyl-carbamic acid 4-[2-(cyclopropylmethyl-propyl-amino)-ethoxy]-phenyl ester], 4 nM.
On to `c1ccc(CCOc2ccc(CCNC3CC3)cc2)cc1` [Example 32, Cyclopropyl-[2-(4-phenethyloxy-phenyl)-ethyl]-amine], for which, under setting [1], the IC50 is 177 nM.
As for `O=C(O)C1CCN(Cc2ccc(OCCc3ccccc3)nc2)CC1` [Example 94, 1-(6-Phenethyloxy-pyridin-3-ylmethyl)-piperidine-4-carboxylic acid], under setting [1], the IC50 turned out to be 254 nM.
On the same count and under the same terms, as for `CCOC(=O)C1CCN(Cc2ccc(OCCCc3ccccc3)cc2)CC1` [Example 106, 1-[4-(3-Phenyl-propoxy)-benzyl]-piperidine-4-carboxylic acid ethyl ester], the figure is 154 nM.
As for `NC(=O)C1CCN(Cc2ccc(OCCc3ccccc3)cc2)CC1` [Example 101, 1-(4-Phenethyloxy-benzyl)-piperidine-4-carboxylic acid amide], the IC50 under setting [1] is 28 nM.
Same read-out and setting: then `O=C1CN(CCc2ccc(OCCc3ccccc3)cc2)CCN1` [Example 83, 4-[2-(4-Phenethyloxy-phenyl)-ethyl]-piperazin-2-one], with 100 nM; and `O=C(Nc1cccs1)Oc1ccc(OCCN2CCCCC2)cc1` [Example 65, Thiophen-2-yl-carbamic acid 4-(2-piperidin-1-yl-ethoxy)-phenyl ester], with 7 nM.
As to `CN(C)C(=O)Oc1ccc(OCCN2CCC(O)(c3ccccc3)CC2)cc1` [Example 10, Dimethyl-carbamic acid 4-[2-(4-hydroxy-4-phenyl-piperidin-1-yl)-ethoxy]-phenyl ester], the IC50 under setting [1] worked out at 52 nM.
Same read-out and setting: as for `Oc1ccc(CCOc2ccc(OCCN3CCCCC3)cc2)cc1` [Example 74, 4-{2-[4-(2-Piperidin-1-yl-ethoxy)-phenoxy]-ethyl}-phenol], the figure is 50 nM.
Consider `O=C(Nc1ccccc1)Oc1ccc(OCCN2CCCCCC2)cc1` [Example 55, Phenyl-carbamic acid 4-(2-azepan-1-yl-ethoxy)-phenyl ester], for which, under setting [1], the IC50 turned out to be 0.5 nM.
In the case of `O=C(Nc1ccccc1)Oc1ccc(CCCN2CCC(O)(c3ccccc3)CC2)cc1` [Example 36, Phenyl-carbamic acid 4-[3-(4-hydroxy-4-phenyl-piperidin-1-yl)-propyl]-phenyl ester], the IC50 under setting [1] is 5 nM.
Same read-out and setting: then `O=C(Nc1ccccc1)Oc1ccc(CCN2CCCCCC2)cc1` [Example 61, Phenyl-carbamic acid 4-(2-azepan-1-yl-ethyl)-phenyl ester], with 2 nM; and `CCN(CCc1ccc(OCC(O)c2ccccc2)cc1)C1CCCCC1` (stereo not shown) [Example 73, 2-{4-[2-(Cyclohexyl-ethyl-amino)-ethyl]-phenoxy}-1-phenyl-ethanol], with 10 nM.
For the compound `OC1CCN(Cc2ccc(OCCCc3ccccc3)cc2)CC1` [Example 108, 1-[4-(3-Phenyl-propoxy)-benzyl]-piperidin-4-ol], under setting [1], the IC50 was determined as 16 nM.
Still for that read-out and setting: as for `CN(CCC(=O)O)CCc1ccc(OCCc2ccccc2)cc1` [Example 88, 3-{Methyl-[2-(4-phenethyloxy-phenyl)-ethyl]-amino}-propionic acid], the figure is 4 nM.
On to `N#CC1CCN(CCc2ccc(OCCc3ccccc3)cc2)CC1` [Example 29, 1-[2-(4-Phenethyloxy-phenyl)-ethyl]-piperidine-4-carbonitrile], for which, under setting [1], the IC50 stood at 55 nM.
The same measure, in the same setting: then `NC(=O)C1CCCN(Cc2ccc(OCCc3ccccc3)cc2)C1` (stereo not shown) [Example 102, 1-(4-Phenethyloxy-benzyl)-piperidine-3-carboxylic acid amide], with 36 nM; and `CCCN(CCc1ccc(OC(=O)Nc2ccccc2)cc1)CC1CC1` [Example 62, Phenyl-carbamic acid 4-[2-(cyclopropylmethyl-propyl-amino)-ethyl]-phenyl ester], with 4 nM.
With `O=C(O)C1CCN(CCc2ccc(OCC(O)c3ccccc3)cc2)CC1` (stereo not shown) [Example 92], the IC50 under setting [1] came to 81 nM.
On the same count and under the same terms, as for `c1ccc(CCOc2ccc(CCN3CCC(c4c[nH]nn4)CC3)cc2)cc1` [Example 31, 1-[2-(4-Phenethyloxy-phenyl)-ethyl]-4-(1H-[1,2,3]triazol-4-yl)-piperidine], the figure is 33 nM.
Consider `CCCN(CCCc1ccc(OC(=O)Nc2ccccc2)cc1)CC1CC1` [Example 38, Phenyl-carbamic acid 4-[3-(cyclopropylmethyl-propyl-amino)-propyl]-phenyl ester hydrochloride], for which the concentration for half-maximal inhibition (IC50) was 6 nM.
For the compound `NC(=O)NC1CCN(Cc2ccc(OCCc3ccccc3)cc2)CC1` [Example 114, [1-(4-Phenethyloxy-benzyl)-piperidin-4-yl]-urea], the IC50 under setting [1] is 17 nM.
Still for that read-out and setting: then `O=C(Oc1ccc(OCCN2CCCCC2)cc1)c1c[nH]c2ccccc12` [Example 68, 1H-Indole-3-carboxylic acid 4-(2-piperidin-1-yl-ethoxy)-phenyl ester], with 86 nM; and `c1ccc(CCOc2ccc(CN3CCCCC3)cc2)cc1` [Example 95, 1-(4-Phenethyloxy-benzyl)-piperidine], with 36 nM; and `CCOC(=O)CCN(CCc1ccc(OCCc2ccccc2)cc1)C1CCN(C(C)=O)CC1` [Example 90, 3-{(1-Acetyl-piperidin-4-yl)-[2-(4-phenethyloxy-phenyl)-ethyl]-amino}-propionic acid ethyl ester], with 21 nM.

For the origin of these results see patent publication US20060223792A1, “Phenyl and pyridyl LTA4H modulators” (priority 2005, published 2006).
